Here are results for 2 molecules from patent US20250171449A1, “TRYPTANTHRIN DERIVATIVES WITH THIOSEMICARBAZONE SUBSTITUTION AND USE THEREOF” (UNIVERZITA KARLOVA, priority 2022, published 2025).

The structures appear in SMILES notation.

A short description of test [1]: Interaction of tryptanthrin derivatives with transition metal ions (UV/Vis spectroscopy). The test is classed as binding. The note with it: receptor 100 μM, ion 5000 μM. As for the experimental part: First, the interaction of tryptanthrin derivatives 1 and 5 with metal ions was studied using UV/Vis spectroscopy. The receptor concentration was 100 μM and the ion concentration was 5000 μM.

In a further test the target is DNA from salmon sperm. As to the kind of experiment: Interaction with DNA by UV/Vis titration. The test is classed as binding.
The target in another test is RNA. As to the kind of experiment: Interaction with RNA by UV/Vis titration. The class given is binding.
For another test, the system named is SARS-COV-2. As to the kind of experiment: Antiviral effect: SARS-COV-2 RNA production in infected Vero cells (RT-qPCR of E-gene). The class given is cell-based. The note with it: Vero in vitro model; 0-10 μM; 24 and 48 hours. As for the experimental part: The cells in question (Vero cell line from African green monkey kidney; 1.5×10^5 cells per well) were infected with a SARS-COV-2 isolate provided by the Bioconservation Section of Techonin. The infectious inoculum contained 2.38×10^7 copies of the SARS-COV-2 E-gene. After 1 h inoculation, cells were supplemented with 1 ml of Dulbecco's modified Eagle's medium containing 2% fetal bovine serum (2% FBS-DMEM) and increasing concentrations (0-10 μM) of tryptanthrin derivatives 1 (PAA-TSC) and 5 (T8H-TSC), resp. After 24 and 48 hours of incubation, the growth of SARS-COV-2 was characterized in an aliquot of the culture supernatant by one-step RT-qPCR.
Viral RNA was isolated from 200 μl culture supernatant using magnetic beads. SARS-CoV-2 RNA was quantified by amplifying the E-gene of SARS-COV-2 (Generi Biotech) using the SensiFast Probe One-Step Kit (BioLine) and Light Cycler 480 II (Roche) using absolute quantification and calibration curve.

The nature of test [2]: Binding constant with Fe^2+ ions by UV/Vis titration. How it is done: (§1) The association of tryptanthrin derivatives with ferrous and ferric ions was studied by UV/Vis spectroscopy in aqueous solution (water/DMSO, 99:1, v/v). […] Association constants (K) were calculated from absorbance changes (AA) in the spectral maximum of the derivative and in the spectral maximum of its complexes with Fe^2+/3+ ions by regression analysis. The concentration of tryptanthrin derivatives was 100 μM. The concentration of Fe^2+ and Fe^3+ ions fluctuated in the range of 0-5 mM. UV/Vis spectra were measured with a Shimadzu spectrophotometer in the range 220-900 nm with a step of 1 nm in a 1 cm plastic cuvette at a scanning speed of 300 nm.min^-1. The effect of different concentrations of Fe ions on the absorbance of substance 1 (PAA-TSC) is shown in FIGS. 5 and 6; that for substance 5 […]-TSC) in FIGS. 7 and 8.

Test [3] in a line: Binding constant with Fe^3+ ions by UV/Vis titration. As for the experimental part:
as §1

The mark [4] stands for this setting: stoichiometry (ion:ligand) 1:1, water/DMSO 99:1, derivative 100 μM.
Setting [5] is: stoichiometry (NK:ligand) 1:2, phosphate buffer pH 7.00.

Take `CC(CC1(O)c2ccccc2-n2c1nc1ccccc1c2=O)=NNC(N)=S` (mixture of isomers) [derivative 1]: in test [1], the “absorbance changes after addition of metal ions (selectivity for Fe^2+/Fe^3+)” value was “significant absorbance changes were observed only in the case of ferrous and ferric ions”. For the same molecule, the “Log (K) association constant” value on DNA from salmon sperm (stoichiometry (NK:ligand) 1:1, phosphate buffer pH 7.00) came out at 7.4; on RNA (stoichiometry (NK:ligand) 2:1, phosphate buffer pH 7.00) it was 8.7; in test [2] (setting [4]) it was 1.5; in test [3] (setting [4]), 6.0; in test [3] (stoichiometry (ion:ligand) 1:2, water/DMSO 99:1, derivative 100 μM), 10.2. The “inhibition of virus particle / CoV-2 RNA production” value in the test on SARS-COV-2 is reported as “inhibition of virus particle production”.

As for `NC(=S)NN=C1c2ccccc2-n2c1nc1ccccc1c2=O` [derivative 5], the “absorbance changes after addition of metal ions (selectivity for Fe^2+/Fe^3+)” value in test [1] is “significant absorbance changes were observed only in the case of ferrous and ferric ions”. Moreover, the “Log (K) association constant” value on DNA from salmon sperm (setting [5]) is 6.0; on RNA (setting [5]), 7.3; in test [2] (setting [4]), 4.9; in test [2] (stoichiometry (ion:ligand) 2:1, water/DMSO 99:1, derivative 100 μM) it was 7.1. The “inhibition of virus particle / CoV-2 RNA production” value in the test with SARS-COV-2 is given as “inhibition of viral particle production”.
